# Reference: US9260419B2, “Polymorphic salt of a metap-2 inhibitor and methods of making and using same” (Zafgen, Inc., priority 2012, dated 2016)
# Counter-ions that a name gives are not always drawn.
# Key:
# [1] = relative stability of crystalline forms; assay type: physicochemical
# [2] = challenge stability study, stability-indicating HPLC assay and physical description; assay type: physicochemical; conditions: sealed vials
# Experimental: A challenge stability study was carried out with amorphous and crystalline forms. Samples were stored in sealed vials and stored at room temperature (25° C.) and 40° C. Samples were assayed at various times with a stability-indicating HPLC assay. Retained potency was determined and physical description was observed.
# [3] = 25° C., 8 days, hemioxalate salt
# [4] = 25° C., 12 days, hemioxalate salt
# [5] = 40° C., 5 days, hemioxalate salt
stability relative to Form A [1],"% Purity (by peak area) [2, 3] [%]","Physical Description [2, 3]","% Purity (by peak area) [2, 4] [%]","Physical Description [2, 4]","% Purity (by peak area) [2, 5] [%]","Physical Description [2, 5]",Physical Description ([2]; Time zero),"% Purity (by peak area) ([2]; Time zero, hemioxalate salt) [%]",SMILES
metastable relative to Form A,,,,,,,,,"CO[C@@H]1[C@H](OC(=O)/C=C/c2ccc(OCCN(C)C)cc2)CCC2(CO2)[C@H]1C1(C)OC1CC=C(C)C (some centres unmarked) [Form B, 6-O-(4-dimethylaminoethoxy)cinnamoyl fumagillol hemioxalate]"
,86.58,White powder,83.88,White powder,86.91,White powder,Free flowing,94.98,"CO[C@@H]1[C@H](OC(=O)/C=C/c2ccc(OCCN(C)C)cc2)CCC2(CO2)[C@H]1C1(C)OC1CC=C(C)C (some centres unmarked) [Amorphous, 6-O-(4-dimethylaminoethoxy)cinnamoyl fumagillol hemioxalate salt]"
,97.86,Free flowing,97.84,Free flowing,97.72,Free flowing,Free flowing,97.91,"CO[C@@H]1[C@H](OC(=O)/C=C/c2ccc(OCCN(C)C)cc2)CCC2(CO2)[C@H]1C1(C)OC1CC=C(C)C (some centres unmarked) [Crystalline, 6-O-(4-dimethylaminoethoxy)cinnamoyl fumagillol hemioxalate salt]"
